Data: article PMC7480010 (Journal of biomolecular screening, 2015)

Tested on: MDA-MB-231
Format: cell-based, human
Conditions: anisomycin stimulation

SMILES: Cc1ccc(-n2nc(C(C)(C)C)cc2NC(=O)Nc2ccc(OCCN3CCOCC3)c3ccccc23)cc1 [BIRB-796]
- level of phosphorylated/activated p38: reduces in the overall level of phosphorylated p38
- phosphorylation status of SAPK/JNK: reduces the phosphorylation of JNK
